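How tested: cells in 96-well plates exposed to compound for 48 hours at five concentrations. TGI: concentration producing complete growth inhibition.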
How the values were obtained:
Assay in all cases: NCI-60 cell line screen, 48 h
[1] = test system: PC-3 prostate
[2] = test system: ACHN renal
[3] = test system: SK-MEL-5 melanoma
[4] = test system: HT29 colon
[5] = test system: SR leukemia
[6] = test system: SF-539 CNS
[7] = test system: A549 NSCLC
[8] = test system: MOLT-4 leukemia
[9] = test system: SN12C renal
[10] = test system: RPMI-8226 leukemia
[11] = test system: HOP-92 NSCLC
[12] = test system: HCT-15 colon
[13] = test system: SNB-75 CNS
[14] = test system: HOP-62 NSCLC
[15] = test system: NCI-H522 lung
[16] = test system: MDA-MB-231 breast
[17] = test system: NCI-H23 lung
[18] = test system: UACC-62 melanoma
[19] = test system: CAKI-1 renal

SMILES	TGI [1] [µM]	TGI [2] [µM]	TGI [3] [µM]	TGI [4] [µM]	TGI [5] [µM]	TGI [6] [µM]	TGI [7] [µM]	TGI [8] [µM]	TGI [9] [µM]	TGI [10] [µM]	TGI [11] [µM]	TGI [12] [µM]	TGI [13] [µM]	TGI [14] [µM]	TGI [15] [µM]	TGI [16] [µM]	TGI [17] [µM]	TGI [18] [µM]	TGI [19] [µM]
CC[C@@H]1CC[C@@H]2[C@H](CC[C@]3(C)[C@@H](OS(=O)(=O)c4ccc(C)cc4)CC[C@@H]23)[C@H]1COS(=O)(=O)c1ccc(C)cc1	> 100	> 100	> 100	> 100	> 100	> 100	> 100	> 100	> 100	> 100	> 100	> 100	–	–	–	–	–	–	–
CCN(CC)/C(Sc1ccccc1)=C(\C(Cl)=C(Cl)Cl)[N+](=O)[O-]	33.3	31.7	29	45.8	–	33	52.4	31.3	37.8	–	36.4	34.8	57.3	42.4	33.3	50.5	36.1	43.7	29.2
CC(=O)OCC1OC(OC2CC3C(C)(C)C(OC(C)=O)CC[C@]3(C)C3CCC45CC4(CCC5[C@@H](C)C[C@H](O)C(O)C(C)(C)O)[C@]23C)C(O)C(O)C1O (some centres not stated)	> 10	> 10	> 10	> 10	–	> 10	> 10	> 10	> 10	> 10	> 10	> 10	> 10	> 10	> 10	> 10	> 10	> 10	> 10
O=S(Nc1ccccc1)c1cccc(Cl)c1 (configuration not stated)	> 100	> 100	> 100	> 100	> 100	77.6	> 100	> 100	> 100	> 100	–	> 100	> 100	> 100	> 100	> 100	> 100	–	> 100
CCn1c(SCC(=O)NNC(=S)Nc2ccc([N+](=O)[O-])cc2)nc2ccccc2c1=O	> 100	> 100	> 100	–	> 100	> 100	> 100	65.8	> 100	> 100	–	> 100	> 100	> 100	> 100	> 100	> 100	> 100	> 100
CC(=O)OCC1OC(c2nc3ccccc3s2)=CC(OC(C)=O)C1OC(C)=O (configuration not stated)	> 100	> 100	> 100	> 100	> 100	> 100	> 100	–	> 100	> 100	–	–	> 100	> 100	> 100	> 100	> 100	–	> 100
CCOP(=O)(OCC)C(Nc1ccc(Br)cc1)c1cccc([N+](=O)[O-])c1 (configuration not stated)	–	47.1	28.3	34.3	56.2	45.6	34.7	47.8	37.8	98.2	42.2	31.7	> 100	39.8	28	43.2	53	29.6	49.7
COc1cc(CO)c(CC(=O)NCCCc2ccccc2)cc1OC	> 100	> 100	> 100	> 100	> 100	–	> 100	> 100	> 100	–	> 100	> 100	> 100	> 100	–	> 100	> 100	> 100	> 100
CCCCCCCCCCCCCCCCOCC(CC(F)(F)P(=O)(OCC)OCC)OC(C)=O (configuration not stated)	26.7	27.3	36.2	35.5	–	–	24.7	> 100	44.5	> 100	23.1	20.2	32.9	–	31.2	30.1	34.6	30.2	30.3
N#Cc1c(-c2ccc([N+](=O)[O-])cc2)c(C#N)c(=O)n(NS(=O)(=O)c2ccccc2)c1-c1ccccc1	> 100	> 100	> 100	> 100	–	> 100	> 100	> 100	> 100	> 100	> 100	> 100	> 100	> 100	> 100	> 100	–	> 100	> 100
CN1CNc2nc(N)n(C)c(=O)c2C1	–	> 10	–	> 10	> 10	> 10	> 10	> 10	> 10	–	> 10	> 10	> 10	–	> 10	–	> 10	> 10	–
CC(C)=CCC/C(=C/CC/C(=C\CCc1ccoc1)C(=O)O)C(=O)O	> 100	> 100	> 100	> 100	–	> 100	> 100	> 100	> 100	> 100	> 100	> 100	> 100	> 100	> 100	> 100	> 100	> 100	> 100
C=CCC1(OC(C)=O)C2OC(=O)C1(O)OCC2O (configuration not stated)	> 100	> 100	> 100	> 100	> 100	> 100	> 100	> 100	> 100	> 100	–	> 100	98.9	> 100	> 100	> 100	> 100	> 100	> 100
